Series [1] has as its system ZIKV. The following applies: cited from earlier work.
Series [2] concerns DENV. The following applies: cited from earlier work.
In series [3] the test system is Viral E protein. The experiment in a line: Western blot analysis of E protein expression in virus-infected cells. In kind it is cell-based, Zika virus. The method, then: FIGS. 3A-3C show validation of the antiviral effect of TPB in the μM range. (FIG. 3A) Cells infected with PRVABC59 virus were incubated in the presence of various concentrations of TPB for 96 hours. Culture supernatants were titrated for viral genome copies (FIG. 3A) and infectious virus (FIG. 3B). Data are from three independent experiments with error bars showing±SEM. Statistical analysis was performed using unpaired two-tailed Student's t-test to determine significance of difference. […]. (FIG. 3C) Western blot analysis of E protein expression in virus-infected cells in the presence of various concentrations of TPB. Relative mobility of molecular mass markers are shown on the left.
(In general: In western blotting, separated proteins are transferred to a membrane and probed.)

Series [4] relates to PRVABC59 virus. The experiment in a line: PRVABC59 virus growth in NTERRA cells in the presence of TPB. In kind it is cell-based, Zika virus. The following applies: human testicular cell line NTERRA.
A short description of series [5]: ATP-based cell viability assay (CellTiter-Glo). The following applies: African green monkey (Cercopithecus aethiops), Vero cells, four days, read-out: CC50 (cellular cytotoxicity 50). As to the method: A modified ATP based cytopathic effect (CPE) assay was used for this study based on the CPE method for anti-DENV drug development described elsewhere (see, e.g., Che et al., 2009 Int. J. Clin. Exp. Med. 2:363-373). Vero cells (approximately 30,000 per well) were seeded in a black 96-well plate for 24 hours before the experiment. Cell monolayers were treated with various concentrations of the drugs for 4 days at 37° C. The ATP concentration was measured following manufacturer's recommendations using CellTiter-Glo kit from Promega (Madison, Wis.). Luminescence was recorded using a Veritas Microplate Luminometer at 420 nm. The 50% cytotoxic concentration (CC50) was calculated by a non-linear regression analysis of the dose-response curves.
(In general: In ATP-based viability assays light output follows the ATP content of the culture.)

The test system of series [6] is PRVABC59 virus. The experiment in a line: PRVABC59 virus growth in HTR-8 cells in the presence of TPB. In kind it is cell-based, Zika virus. The following applies: human trophoblast cell line HTR-8.
In series [7] the test system is Zika virus strain MR766. The experiment in a line: Inhibition of MR766 virus growth by TPB. It counts as cell-based. The following applies: μM range TPB concentrations tested. As to the method:
(§1) Vero cells were seeded in a 96-well plate with the density of 6000 cells per well. In the initial screening study, the compound (1 μM)-virus (0.1 PFU/cell) mixture in virus growth medium (VGM) [DMEM containing 2% FBS, PS, 20 mM hydroxyethyl piperazine ethane sulfonic acid (HEPES), 1 mM sodium pyruvate, and non-essential amino acids] was added to the cells and incubated for 72 h. In a separate experiment conducted using 12-well plates, the cells were first infected with the virus at 0.1 PFU/cell and following adsorption, the cells were washed twice in PBS and incubated in VGM containing 1 μM concentrations of the drugs. The cell culture media were collected at 72-96 h post-infection and assayed for infectious virus by plaque assay and viral genome copies by quantitative RT-PCR (RT-qPCR). In all subsequent studies, cells in 12-well plates were infected with ZIKV at MOI of 0.1 PFU/cell and following virus adsorption for 1 h at 37° C., VGM containing various concentrations TPB was added to the cells and incubated as above. Clarified supernatants from the infected cells were then used to determine infectious virus or genome copies as above.

In series [8] the test system is Zika virus strain PRVABC59. Put plainly: Inhibition assay: PRVABC59 ZIKV growth in Vero cells (plaque assay, RT-qPCR). In kind it is cell-based. As to the method: as §1
(§2) ZIKV viral RNA was detected using RT-qPCR on a C100 Thermal Cycler and the CFX96 Real-Time system (Bio-Rad). Viral RNA (vRNA) was extracted from culture supernatant using a QlAamp Viral RNA Mini kit (Qiagen) and TaqMan Fast Virus 1-Step Master Mix (Life technologies). ZIKV primers and probe (ZIKF: CCGCTGCCCAACACAAG (SEQ ID NO:1); ZIK-R:[…] (SEQ ID NO:2); PCR Probe: ZIK-P: […] (SEQ ID NO:3)) were used for quantitative RT-PCR (RT-qPCR) with the following parameters: 50° C. 30 min, 95° C. 5 min, (95° C. 30 S, 58° C. 1 min)×40 cycles. RNA standard concentrations were determined based on the back calculation with OD values and molecular weights and were generated through serial dilution with R^2>0.95.

Series [9] can be described thus: in vivo. It counts as in vivo, Balb/C mice. The following applies: Balb/C, mouse, in vivo, ip, 25 mg/kg. The method, then: as §2
(§3) Balb/C mice were obtained from the Jackson Laboratory (Bar Harbor, Me., USA). After acclimatization for four days, groups of animals (n=6 per group) were injected intraperitoneally with 25 mg/kg body weight dose of TPB diluted in saline or saline alone (no drug control). Following three injections at 12 h intervals, 500 PFU of PRVABC59 virus diluted in PBS was inoculated into each mouse by the subcutaneous (SC) route. Blood was collected by retro-orbital bleeding under anesthesia at days 2, 3, 4, 5, and 6 post-infection. Viral genome copies in the plasma were determined by RT-qPCR.

In series [10] the test system is PRVABC59 virus. Put plainly: in vivo. It counts as in vivo, Balb/C mice. As to the method: as §2, §3
The nature of series [11]: Pharmacokinetic study of TPB in mice (plasma LC-MS/MS). In kind it is in vivo, Balb/C mice. The following applies: 10-12 h post-injection, intraperitoneal, 5 mg/kg or 25 mg/kg. As to the method: For PK studies, groups of Balb/C mice (n=3) were injected intraperitoneally with doses of 5 mg/kg or 25 mg/kg of body weight of TPB in 5% dextrose, plasma was collected from the animals at various times post-injection and stored at −80° C. until analysis by LC-MS/MS for TPB concentrations. Plasma drug levels were subjected to noncompartmental analysis (WinNonlin ver. 6.4 Certera Inc., Princeton, N.J.). The predicted steady-state levels>500 ng/ml were estimated using a twelve h dosing of 25 mg/kg dose of the compound in mice.
TPB was dissolved in DMSO at 1 mg/ml. Working standard solutions were then prepared in 50% methanol in water from the stock solution. Standards (an eight-point calibration curve) and quality controls (at three levels) were prepared by spiking the working standard solutions to blank mouse plasma. One hundred μl aliquot of plasma was mixed with 25 μl of internal standard spiking solution (rilpivirine 1000 ng/ml in 50% acetonitrile in water), 1.5 ml ethyl acetate was added and vortexed vigorously for 15 min. […]
An Agilent 1200 HPLC system (Agilent Technologies, CA, USA) coupled with AB Sciex API 3200 Q Trap with an electrospray ionization source (Applied Biosystems, Foster City, Calif., USA) was used. The mass transitions m/z 541.2→330.2 and 541.2→212.2 for analyte and m/z 367.2→195.2 for internal standard were monitored. […]

`CC[C@H](C)[C@H]1O[C@]2(CC[C@@H]1C)C[C@@H]1C[C@@H](C/C=C(\C)[C@@H](O[C@H]3C[C@H](OC)[C@@H](O[C@H]4C[C@H](OC)[C@@H](O)[C@H](C)O4)[C@H](C)O3)[C@@H](C)/C=C/C=C3\CO[C@@H]4[C@H](O)C(C)=C[C@@H](C(=O)O1)[C@]34O)O2` [IVM, Ivermectin]: the “Inhibition of ZIKV infection” value in series [1] (10 μM) is reported as “strongly”.

Consider `COc1c(C)c2c(c(O)c1C/C=C(\C)CCC(=O)O)C(=O)OC2` [MPA, Mycophenolic acid], for which the “DENV RNA replication” value in series [2] is “inhibit DENV RNA replication”. In addition, the “Inhibition of infection of cells in vitro by ZIKV” value in series [1] (1 μM) is “over 99%”.

For the compound `O=C(NC(=S)Nc1ccc(N2CCN(C(=O)c3cccs3)CC2)cc1)c1sc2ccccc2c1Cl` [Compound 1, 3-chloro-N-[({4-[4-(2-thienylcarbonyl)-1-piperazinyl]phenyl}amino)carbonothioyl]-1-benzothiophene-2-carboxamide], the “Viral E protein synthesis in infected cells” value in series [3] (0.5 μM TPB) is reported as “significantly inhibited”. Moreover, the “Viral E protein synthesis in infected cells” value in series [3] (higher concentrations than 0.5 μM TPB) is “undetectable”. For the same compound, the “PRVABC59 virus growth inhibition in NTERRA” value in [4] was “inhibited the virus growth”. Further, the CC50 at 4 days in series [5] came to 19.4 µM. The “PRVABC59 virus growth inhibition in HTR-8” value in series [6] is given as “inhibited the virus growth”. Further, the “MR766 virus growth inhibition” value in series [7] is recorded as “sensitive to inhibition”. Besides, in series [8] (0.5 μM TPB, 96 hours), the “Genome copy numbers in supernatants, reduction” value is given as “over 100 fold” and the “Infectious virus in supernatants, reduction” value is “over 100 fold”. Also, in [8] (1 μM TPB, 96 hours), the Virus growth reduction result is “over 1000 fold”. Moreover, the “ZIKV growth inhibition (genome copies in culture supernatants) vs vehicle-only treated cells” value in [8] (1 μM compound, Vero cells, 72 hours) is given as above 99%. The “Infectious virus yield inhibition” value in series [8] (1 μM compound, Vero cells, 96 hours) was “at least 1000 fold”. In addition, in [8] (1 μM, Vero cells, PRVABC59, 96 hours post-infection), the “ZIKV yield inhibition, side-by-side comparison” value is recorded as “over 1000 fold”. Besides, the “Selectivity index 50 (SI50, CC50/IC50)” value in [8] (Vero cells) came out at 206. The IC50 in series [8] (Zika virus, Vero, 96 h, Vero cells, PRVABC59, 96 hours post-infection, read-out: IC50 (infectious virus yield, plaque assay)) was found to be 0.094 µM. This compound also gave a concentration at 2 days post-infection in [9] of around 270 ng/mL. In [10] (day 4 post-infection, 25 mg/kg intraperitoneal, 500 PFU ZIKV), the “Viral RNA level in plasma, lower than vehicle group” value was around 40 fold. Further, in series [10] (immunocompetent mice), the ZIKV viremia entry was “reduced ZIKV viremia significantly”. Besides, the TPB plasma level entry in series [11] is reported as “approximately 100 ng/ml”.

By CC50 is commonly meant the concentration giving 50% cytotoxicity. As a reminder, the IC50 is the concentration that inhibits the measured activity by half.

The record behind these values is patent US11135219B2, “Methods of treating or preventing Zika virus infection” (priority 2017, dated 2021).
